Source: PubChem BioAssay (NCI)
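Exposure lasted 48 hours, with cells grown in 96-well plates and compounds tested at five concentrations. At the GI50, growth is halved. TGI is the concentration that stops growth completely.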

Legend:
Assay in all cases: NCI-60 cell line screen, 48 h
A498 renal = tested on: A498 renal
A549 NSCLC = tested on: A549 NSCLC
ACHN renal = tested on: ACHN renal
BT-549 breast = tested on: BT-549 breast
CAKI-1 renal = tested on: CAKI-1 renal
CCRF-CEM leukemia = tested on: CCRF-CEM leukemia
COLO 205 colon = tested on: COLO 205 colon
DU-145 prostate = tested on: DU-145 prostate
EKVX NSCLC = tested on: EKVX NSCLC
HCC-2998 colon = tested on: HCC-2998 colon
HCT-15 colon = tested on: HCT-15 colon
HL-60(TB) leukemia = tested on: HL-60(TB) leukemia
HOP-92 NSCLC = tested on: HOP-92 NSCLC
HT29 colon = tested on: HT29 colon
IGROV1 ovarian = tested on: IGROV1 ovarian
KM12 colon = tested on: KM12 colon
LOX IMVI melanoma = tested on: LOX IMVI melanoma
M14 melanoma = tested on: M14 melanoma
MALME-3M melanoma = tested on: MALME-3M melanoma
MCF7 breast = tested on: MCF7 breast
MDA-MB-231 breast = tested on: MDA-MB-231 breast
MDA-MB-435 = tested on: MDA-MB-435
MOLT-4 leukemia = tested on: MOLT-4 leukemia
NCI-H226 lung = tested on: NCI-H226 lung
NCI-H23 lung = tested on: NCI-H23 lung
NCI-H460 lung = tested on: NCI-H460 lung
NCI-H522 lung = tested on: NCI-H522 lung
OVCAR-3 ovarian = tested on: OVCAR-3 ovarian
OVCAR-4 ovarian = tested on: OVCAR-4 ovarian
OVCAR-5 ovarian = tested on: OVCAR-5 ovarian
PC-3 prostate = tested on: PC-3 prostate
RXF 393 renal = tested on: RXF 393 renal
SF-268 CNS = tested on: SF-268 CNS
SF-295 CNS = tested on: SF-295 CNS
SF-539 CNS = tested on: SF-539 CNS
SK-MEL-2 melanoma = tested on: SK-MEL-2 melanoma
SK-MEL-28 melanoma = tested on: SK-MEL-28 melanoma
SK-MEL-5 melanoma = tested on: SK-MEL-5 melanoma
SK-OV-3 ovarian = tested on: SK-OV-3 ovarian
SN12C renal = tested on: SN12C renal
SNB-19 CNS = tested on: SNB-19 CNS
SNB-75 CNS = tested on: SNB-75 CNS
SR leukemia = tested on: SR leukemia
SW-620 colon = tested on: SW-620 colon
T-47D breast = tested on: T-47D breast
TK-10 renal = tested on: TK-10 renal
UACC-257 melanoma = tested on: UACC-257 melanoma
UACC-62 melanoma = tested on: UACC-62 melanoma
UO-31 renal = tested on: UO-31 renal

COc1cc(C2CC(c3cccc(Nc4ccncc4)c3)=NN2c2ccccc2)cc(OC)c1OC (stereo not drawn)
GI50 (A498 renal): 1630 nM
TGI (A498 renal): 7140 nM
GI50 (A549 NSCLC): 1730 nM
TGI (A549 NSCLC): 3530 nM
GI50 (ACHN renal): 1700 nM
TGI (ACHN renal): 3110 nM
GI50 (BT-549 breast): 1800 nM
TGI (BT-549 breast): 3560 nM
GI50 (CAKI-1 renal): 1550 nM
TGI (CAKI-1 renal): 3010 nM
GI50 (CCRF-CEM leukemia): 2930 nM
TGI (CCRF-CEM leukemia): 8530 nM
GI50 (COLO 205 colon): 1800 nM
TGI (COLO 205 colon): 4250 nM
GI50 (DU-145 prostate): 1790 nM
TGI (DU-145 prostate): 3400 nM
GI50 (EKVX NSCLC): 1800 nM
TGI (EKVX NSCLC): 4160 nM
GI50 (HCC-2998 colon): 1800 nM
TGI (HCC-2998 colon): 3300 nM
GI50 (HCT-15 colon): 1910 nM
TGI (HCT-15 colon): 3750 nM
GI50 (HL-60(TB) leukemia): 1720 nM
TGI (HL-60(TB) leukemia): 3650 nM
GI50 (HOP-92 NSCLC): 1410 nM
TGI (HOP-92 NSCLC): 2940 nM
GI50 (HT29 colon): 1930 nM
TGI (HT29 colon): 4530 nM
GI50 (IGROV1 ovarian): 1770 nM
TGI (IGROV1 ovarian): 3610 nM
GI50 (KM12 colon): 1720 nM
TGI (KM12 colon): 3460 nM
GI50 (LOX IMVI melanoma): 1760 nM
TGI (LOX IMVI melanoma): 3150 nM
GI50 (M14 melanoma): 1910 nM
TGI (M14 melanoma): 4120 nM
GI50 (MALME-3M melanoma): 1610 nM
TGI (MALME-3M melanoma): 3030 nM
GI50 (MCF7 breast): 1840 nM
TGI (MCF7 breast): 4040 nM
GI50 (MDA-MB-231 breast): 1520 nM
TGI (MDA-MB-231 breast): 2890 nM
GI50 (MDA-MB-435): 1610 nM
TGI (MDA-MB-435): 3120 nM
GI50 (MOLT-4 leukemia): 1860 nM
TGI (MOLT-4 leukemia): 4700 nM
GI50 (NCI-H226 lung): 2110 nM
TGI (NCI-H226 lung): 5270 nM
GI50 (NCI-H23 lung): 1940 nM
TGI (NCI-H23 lung): 3870 nM
GI50 (NCI-H460 lung): 1770 nM
TGI (NCI-H460 lung): 3270 nM
GI50 (NCI-H522 lung): 1750 nM
TGI (NCI-H522 lung): 3620 nM
GI50 (OVCAR-3 ovarian): 1660 nM
TGI (OVCAR-3 ovarian): 3140 nM
GI50 (OVCAR-4 ovarian): 1710 nM
TGI (OVCAR-4 ovarian): 3730 nM
GI50 (OVCAR-5 ovarian): 2170 nM
TGI (OVCAR-5 ovarian): 5230 nM
GI50 (PC-3 prostate): 1790 nM
TGI (PC-3 prostate): 4230 nM
GI50 (RXF 393 renal): 1560 nM
TGI (RXF 393 renal): 2950 nM
GI50 (SF-268 CNS): 1700 nM
TGI (SF-268 CNS): 3450 nM
GI50 (SF-295 CNS): 1810 nM
TGI (SF-295 CNS): 3280 nM
GI50 (SF-539 CNS): 1710 nM
TGI (SF-539 CNS): 3110 nM
GI50 (SK-MEL-2 melanoma): 1960 nM
TGI (SK-MEL-2 melanoma): 3800 nM
GI50 (SK-MEL-28 melanoma): 1770 nM
TGI (SK-MEL-28 melanoma): 3300 nM
GI50 (SK-MEL-5 melanoma): 1780 nM
TGI (SK-MEL-5 melanoma): 3170 nM
GI50 (SK-OV-3 ovarian): 1780 nM
TGI (SK-OV-3 ovarian): 3500 nM
GI50 (SN12C renal): 1600 nM
TGI (SN12C renal): 3050 nM
GI50 (SNB-19 CNS): 1640 nM
TGI (SNB-19 CNS): 3290 nM
GI50 (SNB-75 CNS): 1420 nM
TGI (SNB-75 CNS): 3740 nM
GI50 (SR leukemia): 1560 nM
TGI (SR leukemia): 3580 nM
GI50 (SW-620 colon): 1660 nM
TGI (SW-620 colon): 3160 nM
GI50 (T-47D breast): 2120 nM
TGI (T-47D breast): 6610 nM
GI50 (TK-10 renal): 1790 nM
TGI (TK-10 renal): 3420 nM
GI50 (UACC-257 melanoma): 1950 nM
TGI (UACC-257 melanoma): 3820 nM
GI50 (UACC-62 melanoma): 1730 nM
TGI (UACC-62 melanoma): 3180 nM
GI50 (UO-31 renal): 1420 nM
TGI (UO-31 renal): 2810 nM
